Key:
Type in all cases: in vivo
Beta vulgaris (BEAVA) = experiment: B2 Post-Emergence Efficacy - Test 2; conditions: 15 days after application, 0-100 scale
Procedure: (§1) Seeds of a variety of test species (see Table B1) were sown in standard soil in pots. After cultivation for 12 days (post-emergence) under controlled conditions in a glasshouse (at 24/18° C. or 20/16° C., at day/night; 16 hours light; 65% humidity), the plants were sprayed with an aqueous spray solution derived from the formulation of the technical active ingredient dissolved in IF50 (see Table B2 for composition) and adjuvant (Genapol X080) was added to the spray solution at a rate of 0.2% v/v.
(§2) After application, the test plants were grown in a glasshouse under controlled conditions (as above) and watered twice daily. Herbicidal activity was evaluated 15 days after application on a 0-100 scale. The results, where 0=no damage to test plant and 100=total kill of test plant are shown below in Tables 8 to 11.

[1] = test system: Abutilon theophrasti (ABUTH); experiment: B2 Post-Emergence Efficacy - Test 2; conditions: 15 days after application, 0-100 scale
Procedure: as §1, §2

[2] = test system: Alopecurus myosuroides (ALOMY); experiment: B2 Post-Emergence Efficacy - Test 2; conditions: 15 days after application, 0-100 scale
Procedure: as §1, §2

Zea mays (ZEAMX) = experiment: B2 Post-Emergence Efficacy - Test 2; conditions: 15 days after application; for Herbicidal activity ZEAMX: 0-100 scale; for Herbicidal activity on a 0-100 scale, ZEAMX: 0=no damage, 100=total kill
Procedure: as §1, §2

[3] = test system: Echinochloa crus galli (ECHCG); experiment: B2 Post-Emergence Efficacy - Test 2; conditions: 15 days after application, 0=no damage, 100=total kill
Procedure: as §1, §2

Hordeum vulgare (HORVW) = experiment: B2 Post-Emergence Efficacy - Test 2; conditions: 15 days after application, 0-100 scale
Procedure: as §1, §2

Glycine max (GLXMA) = experiment: B2 Post-Emergence Efficacy - Test 2; conditions: 15 days after application; for Herbicidal activity GLXMA: 0-100 scale; for Herbicidal activity on a 0-100 scale, GLXMA: 0=no damage, 100=total kill
Procedure: as §1, §2

Bromus tectorum (BROTE) = experiment: B2 Post-Emergence Efficacy - Test 2; conditions: 15 days after application, 0-100 scale
Procedure: as §1, §2

Setaria faberi (SETFA) [4] = experiment: B2 Post-Emergence Efficacy - Test 2; conditions: 15 days after application, 0=no damage, 100=total kill
Procedure: as §1, §2

Eleisine indica (ELEIN) = experiment: B2 Post-Emergence Efficacy - Test 2; conditions: 15 days after application, 0=no damage, 100=total kill
Procedure: as §1, §2

[5] = test system: Amaranthus retroflexus (AMARE); experiment: B2 Post-Emergence Efficacy - Test 2; conditions: 15 days after application, 0-100 scale
Procedure: as §1, §2

Solanum nigrum (SOLNI) = experiment: B1 Post-Emergence Efficacy - Test 1; conditions: 1000 g/ha, after 13 days, five point scale
Procedure: (§3) Seeds of a variety of test species are sown in standard soil in pots:— Solanum nigrum (SOLNI), Amaranthus retoflexus (AMARE), Setaria faberi (SETFA), Alopecurus myosuroides (ALOMY), Echinochloa crus-galli (ECHCG), Ipomoea hederacea (IPOHE), Lolium perenne (LOLPE). After 8 days cultivation (post-emergence) under controlled conditions in a glasshouse (at 24/16° C., day/night; 14 hours light; 65% humidity), the plants are sprayed with an aqueous spray solution derived from the formulation of the technical active ingredient in acetone/water (50:50) solution containing 0.5% Tween 20 (polyoxyethylene sorbitan monolaurate, CAS RN 9005-64-5). Compounds are applied at 1000 g/ha. The test plants are then grown in a glasshouse under controlled conditions in a glasshouse (at 24/16° C., day/night; 14 hours light; 65% humidity) and watered twice daily. After 13 days, the test is evaluated for the percentage damage caused to the plant. The biological activities are assessed on a five point scale (5=80-100%; 4=60-79%; 3=40-59%; 2=20-39%; 1=0-19%). A blank value in the table is indicative that the compound was not tested on that species.

[6] = test system: Echinochloa crus-galli (ECHCG); experiment: B1 Post-Emergence Efficacy - Test 1; conditions: 1000 g/ha, after 13 days, five point scale
Procedure: as §3

[7] = test system: Amaranthus retoflexus (AMARE); experiment: B1 Post-Emergence Efficacy - Test 1; conditions: 1000 g/ha, after 13 days, five point scale
Procedure: as §3

Setaria faberi (SETFA) [8] = experiment: B1 Post-Emergence Efficacy - Test 1; conditions: 1000 g/ha, after 13 days, five point scale
Procedure: as §3

[9] = test system: Ipomoea hederacea (IPOHE); experiment: B1 Post-Emergence Efficacy - Test 1; conditions: 1000 g/ha, after 13 days, five point scale
Procedure: as §3

Lolium perenne (LOLPE) = experiment: B1 Post-Emergence Efficacy - Test 1; conditions: 1000 g/ha, after 13 days, five point scale
Procedure: as §3

## Cc1nn(C)c(=O)c(-c2c(F)ccc(Cl)c2CCc2ccccc2C(F)(F)F)c1O [Compound 1.066, 4-[3-chloro-6-fluoro-2-[2-[2-(trifluoromethyl)phenyl]ethyl]phenyl]-5-hydroxy-2,6-dimethyl-pyridazin-3-one]
Beta vulgaris (BEAVA); 15 g/Ha
  Herbicidal activity BEAVA: 80
Beta vulgaris (BEAVA); 30 g/Ha
  Herbicidal activity BEAVA: 80
Beta vulgaris (BEAVA); 60 g/Ha
  Herbicidal activity BEAVA: 80
Beta vulgaris (BEAVA); 125 g/Ha
  Herbicidal activity BEAVA: 80
Beta vulgaris (BEAVA); 250 g/Ha
  Herbicidal activity BEAVA: 80
Beta vulgaris (BEAVA); 500 g/Ha
  Herbicidal activity BEAVA: 90
[1]; 15 g/Ha
  Herbicidal activity ABUTH: 20
[1]; 30 g/Ha
  Herbicidal activity ABUTH: 50
[1]; 60 g/Ha
  Herbicidal activity ABUTH: 50
[1]; 125 g/Ha
  Herbicidal activity ABUTH: 90
[1]; 250 g/Ha
  Herbicidal activity ABUTH: 90
[1]; 500 g/Ha
  Herbicidal activity ABUTH: 100
[2]; 15 g/Ha
  Herbicidal activity ALOMY: 20
[2]; 30 g/Ha
  Herbicidal activity ALOMY: 50
[2]; 60 g/Ha
  Herbicidal activity ALOMY: 70
[2]; 125 g/Ha
  Herbicidal activity ALOMY: 80
[2]; 250 g/Ha
  Herbicidal activity ALOMY: 90
[2]; 500 g/Ha
  Herbicidal activity ALOMY: 90
Zea mays (ZEAMX); 15 g/Ha
  Herbicidal activity ZEAMX: 0
  Herbicidal activity on a 0-100 scale, ZEAMX: 0
Zea mays (ZEAMX); 30 g/Ha
  Herbicidal activity ZEAMX: 20
  Herbicidal activity on a 0-100 scale, ZEAMX: 20
Zea mays (ZEAMX); 60 g/Ha
  Herbicidal activity ZEAMX: 20
  Herbicidal activity on a 0-100 scale, ZEAMX: 20
Zea mays (ZEAMX); 125 g/Ha
  Herbicidal activity ZEAMX: 20
  Herbicidal activity on a 0-100 scale, ZEAMX: 20
Zea mays (ZEAMX); 250 g/Ha
  Herbicidal activity ZEAMX: 30
  Herbicidal activity on a 0-100 scale, ZEAMX: 30
Zea mays (ZEAMX); 500 g/Ha
  Herbicidal activity ZEAMX: 70
  Herbicidal activity on a 0-100 scale, ZEAMX: 70
[3]; 15 g/Ha
  Herbicidal activity on a 0-100 scale, ECHCG: 20
[3]; 30 g/Ha
  Herbicidal activity on a 0-100 scale, ECHCG: 80
[3]; 60 g/Ha
  Herbicidal activity on a 0-100 scale, ECHCG: 90
[3]; 125 g/Ha
  Herbicidal activity on a 0-100 scale, ECHCG: 90
[3]; 250 g/Ha
  Herbicidal activity on a 0-100 scale, ECHCG: 90
[3]; 500 g/Ha
  Herbicidal activity on a 0-100 scale, ECHCG: 90
Hordeum vulgare (HORVW); 15 g/Ha
  Herbicidal activity HORVW: 0
Hordeum vulgare (HORVW); 30 g/Ha
  Herbicidal activity HORVW: 10
Hordeum vulgare (HORVW); 60 g/Ha
  Herbicidal activity HORVW: 20
Hordeum vulgare (HORVW); 125 g/Ha
  Herbicidal activity HORVW: 70
Hordeum vulgare (HORVW); 250 g/Ha
  Herbicidal activity HORVW: 80
Hordeum vulgare (HORVW); 500 g/Ha
  Herbicidal activity HORVW: 90
Glycine max (GLXMA); 15 g/Ha
  Herbicidal activity GLXMA: 20
  Herbicidal activity on a 0-100 scale, GLXMA: 20
Glycine max (GLXMA); 30 g/Ha
  Herbicidal activity GLXMA: 40
  Herbicidal activity on a 0-100 scale, GLXMA: 40
Glycine max (GLXMA); 60 g/Ha
  Herbicidal activity GLXMA: 70
  Herbicidal activity on a 0-100 scale, GLXMA: 70
Glycine max (GLXMA); 125 g/Ha
  Herbicidal activity GLXMA: 70
  Herbicidal activity on a 0-100 scale, GLXMA: 70
Glycine max (GLXMA); 250 g/Ha
  Herbicidal activity GLXMA: 90
  Herbicidal activity on a 0-100 scale, GLXMA: 90
Glycine max (GLXMA); 500 g/Ha
  Herbicidal activity GLXMA: 90
  Herbicidal activity on a 0-100 scale, GLXMA: 90
Bromus tectorum (BROTE); 15 g/Ha
  Herbicidal activity BROTE: 0
Bromus tectorum (BROTE); 30 g/Ha
  Herbicidal activity BROTE: 20
Bromus tectorum (BROTE); 60 g/Ha
  Herbicidal activity BROTE: 60
Bromus tectorum (BROTE); 125 g/Ha
  Herbicidal activity BROTE: 70
Bromus tectorum (BROTE); 250 g/Ha
  Herbicidal activity BROTE: 80
Bromus tectorum (BROTE); 500 g/Ha
  Herbicidal activity BROTE: 90
Setaria faberi (SETFA) [4]; 15 g/Ha
  Herbicidal activity on a 0-100 scale, SETFA: 0
Setaria faberi (SETFA) [4]; 30 g/Ha
  Herbicidal activity on a 0-100 scale, SETFA: 70
Setaria faberi (SETFA) [4]; 60 g/Ha
  Herbicidal activity on a 0-100 scale, SETFA: 70
Setaria faberi (SETFA) [4]; 125 g/Ha
  Herbicidal activity on a 0-100 scale, SETFA: 80
Setaria faberi (SETFA) [4]; 250 g/Ha
  Herbicidal activity on a 0-100 scale, SETFA: 90
Setaria faberi (SETFA) [4]; 500 g/Ha
  Herbicidal activity on a 0-100 scale, SETFA: 90
Eleisine indica (ELEIN); 15 g/Ha
  Herbicidal activity on a 0-100 scale, ELEIN: 0
Eleisine indica (ELEIN); 30 g/Ha
  Herbicidal activity on a 0-100 scale, ELEIN: 20
Eleisine indica (ELEIN); 60 g/Ha
  Herbicidal activity on a 0-100 scale, ELEIN: 70
Eleisine indica (ELEIN); 125 g/Ha
  Herbicidal activity on a 0-100 scale, ELEIN: 70
Eleisine indica (ELEIN); 250 g/Ha
  Herbicidal activity on a 0-100 scale, ELEIN: 70
Eleisine indica (ELEIN); 500 g/Ha
  Herbicidal activity on a 0-100 scale, ELEIN: 80
[5]; 15 g/Ha
  Herbicidal activity AMARE: 90
[5]; 30 g/Ha
  Herbicidal activity AMARE: 90
[5]; 60 g/Ha
  Herbicidal activity AMARE: 90
[5]; 125 g/Ha
  Herbicidal activity AMARE: 100
[5]; 250 g/Ha
  Herbicidal activity AMARE: 100
[5]; 500 g/Ha
  Herbicidal activity AMARE: 100
Solanum nigrum (SOLNI)
  percentage damage caused to the plant, SOLNI: 5 (5=80-100%)
[6]
  percentage damage caused to the plant, ECHCG: 5 (5=80-100%)
[7]
  percentage damage caused to the plant, AMARE: 5 (5=80-100%)
Setaria faberi (SETFA) [8]
  percentage damage caused to the plant, SETFA: 5 (5=80-100%)
[9]
  percentage damage caused to the plant, IPOHE: 5 (5=80-100%)
Lolium perenne (LOLPE)
  percentage damage caused to the plant, LOLPE: 4 (4=60-79%)
